From ChEMBL document CHEMBL5260858, “Targeting mycobacterial membranes and membrane proteins: Progress and limitations” (Bioorg Med Chem, 2023) come the findings set out here.

Data set [1] deals with Mycobacterium tuberculosis. Briefly: Antitubercular activity against Mycobacterium tuberculosis H37Rv assessed as bacterial growth inhibition incubated for 7 days by microplate alamar blue assay. The format is functional. As to conditions: 168 h, time 7 day. On the technique in general: Alamar Blue is a resazurin reagent that responds to reducing activity.
The subject of data set [2] is Mycobacterium tuberculosis. Briefly: Antitubercular activity against Mycobacterium tuberculosis H37Rv assessed as bacterial growth inhibition by REMA analysis. The class given is functional.
For data set [3], the system named is Mycobacterium tuberculosis. The data set is described as follows: In vivo antimycobacterial activity against Mycobacterium tuberculosis H37Rv infected in mouse assessed as reduction in log10 CFU at 1 to 2 times MIC and measured after 10 days. The class given is functional. As to conditions: time 10 day.
The subject of data set [4] is Mycobacterium tuberculosis. The data set is described as follows: Antimycobacterial activity against Mycobacterium tuberculosis H37Rv infected in THP-1 cells assessed as reduction in log10 CFU at MIC and measured after 2 to 7 days. The format is functional. As to conditions: time 2-7 day.
The test system of data set [5] is Mycobacterium tuberculosis. The data set is described as follows: Antitubercular activity against Mycobacterium tuberculosis H37Rv assessed as bacterial growth inhibition incubated for 6 days by resazurin reduction microplate assay. The class given is functional. Conditions: 144 h, time 6 day.
The test system of data set [6] is Mycobacterium tuberculosis. The data set is described as follows: Antitubercular activity against Mycobacterium tuberculosis H37Rv infected in human HepG2 cells assessed as bacterial growth inhibition incubated for 4 weeks by resazurin reduction microtiter assay. The class given is functional, organism-based. Conditions: HepG2, 672 h.
Data set [7] relates to Mycobacterium tuberculosis. Briefly: Antitubercular activity against Mycobacterium tuberculosis H37Rv infected in BALB/c mouse assessed as reduction in bacterial load at 200 mg/kg, po for 10 days by CFU analysis. Conditions: time 10 day. The format is functional.
Data set [8] concerns Mycobacterium tuberculosis. The data set is described as follows: Antitubercular activity against Mycobacterium tuberculosis H37Rv assessed as bacterial growth inhibition. The format is functional.
Data set [9] has as its system Mycobacterium avium. Briefly: Antitubercular activity against Mycobacterium avium assessed as bacterial growth inhibition. The class given is functional.
Data set [10] concerns Mycobacterium tuberculosis. Briefly: Antitubercular activity against Mycobacterium tuberculosis H37Rv ATCC 27294 infected in african green monkey Vero cells assessed as bacterial growth inhibition incubated for 6 days by microplate alamar blue assay. The class given is functional. As to conditions: H37Rv ATCC 27294, 144 h, time 6 day.
In data set [11] the test system is Mycobacterium tuberculosis. Briefly: Antitubercular activity against Mycobacterium tuberculosis Erdman ATCC 35801 infected in RAW264.7 cells assessed as inhibition of intracellular bacterial growth incubated for 6 days by microplate alamar blue assay. The format is functional. Further details: scale not given: the % may be the effect or the level left. As to conditions: time 6 day.

Data set [12] can be described thus: Selectivity index, ratio of IC50 for cytotoxicity against African green monkey Vero cells to MIC for antitubercular activity against Mycobacterium tuberculosis H37Rv ATCC 27294. The class given is toxicity, cell-based. As to conditions: read-out: Selectivity Index.
The subject of data set [13] is Mycobacterium tuberculosis. Briefly: Antitubercular activity against Mycobacterium tuberculosis H37Rv assessed as bacterial growth inhibition by microdilution method. The format is functional. (In general: Broth dilution looks for growth in wells or tubes with falling amounts of substance.)
Data set [14] concerns Mycobacteroides abscessus. Briefly: Antitubercular activity against Mycobacterium abscessus CIP104536 assessed as bacterial growth inhibition incubated 3 to 5 days by resazurin based broth microdilution method. Conditions: time 3-5 day. The class given is functional.
The subject of data set [15] is Mycobacteroides abscessus. Briefly: Antitubercular activity against Mycobacterium abscessus 3321 assessed as bacterial growth inhibition incubated 3 to 5 days by resazurin based broth microdilution method. The class given is functional. As to conditions: time 3-5 day.
Data set [16] deals with Mycobacteroides abscessus. The data set is described as follows: Antitubercular activity against Mycobacterium abscessus 2069 assessed as bacterial growth inhibition incubated 3 to 5 days by resazurin based broth microdilution method. The format is functional. As to conditions: time 3-5 day.
The subject of data set [17] is Mycobacteroides abscessus. The data set is described as follows: Antitubercular activity against Mycobacterium abscessus 3022 assessed as bacterial growth inhibition incubated 3 to 5 days by resazurin based broth microdilution method. The format is functional. As to conditions: time 3-5 day.
Data set [18] has as its system Mycobacteroides abscessus. Briefly: Antitubercular activity against Mycobacterium abscessus 1298 assessed as bacterial growth inhibition incubated 3 to 5 days by resazurin based broth microdilution method. The format is functional. As to conditions: time 3-5 day.
Data set [19] relates to Mycobacteroides abscessus. Briefly: Antitubercular activity against Mycobacterium abscessus 2587 assessed as bacterial growth inhibition incubated 3 to 5 days by resazurin based broth microdilution method. Conditions: time 3-5 day. The format is functional.
In data set [20] the test system is Mycobacteroides abscessus. Briefly: Antitubercular activity against Mycobacterium abscessus CF assessed as bacterial growth inhibition incubated 3 to 5 days by resazurin based broth microdilution method. The class given is functional. Conditions: time 3-5 day.
The subject of data set [21] is Mycobacteroides abscessus. Briefly: Antitubercular activity against Mycobacterium abscessus 2524 assessed as bacterial growth inhibition incubated 3 to 5 days by resazurin based broth microdilution method. The class given is functional. Conditions: time 3-5 day.
Data set [22] relates to Mycobacteroides abscessus. The data set is described as follows: Antitubercular activity against Mycobacterium abscessus 2648 assessed as bacterial growth inhibition incubated 3 to 5 days by resazurin based broth microdilution method. The class given is functional. Conditions: time 3-5 day.
Data set [23] relates to Mycobacteroides abscessus. Briefly: Antitubercular activity against Mycobacterium abscessus 5175 assessed as bacterial growth inhibition incubated 3 to 5 days by resazurin based broth microdilution method. The class given is functional. As to conditions: time 3-5 day.
In data set [24] the test system is Mycobacterium tuberculosis. Briefly: Antitubercular activity against Mycobacterium tuberculosis Erdman assessed as bacterial growth inhibition. The class given is functional.
For data set [25], the system named is Mycobacterium tuberculosis. Briefly: Antitubercular activity against Mycobacterium tuberculosis H37Rv assessed as bacterial growth inhibition incubated for 14 days by agar plate method. Conditions: 336 h, time 14 day. The class given is functional.
Data set [26] concerns Mycobacterium tuberculosis. Briefly: Antitubercular activity against Mycobacterium tuberculosis Erdman assessed as bacterial growth inhibition incubated for 14 days by agar plate method. Conditions: 336 h, time 14 day. The class given is functional.
In data set [27] the test system is Mycobacterium marinum. The data set is described as follows: Antitubercular activity against Mycobacterium marinum strain M assessed as bacterial growth inhibition incubated for 14 days by agar plate method. As to conditions: 336 h, time 14 day. The format is functional.
Data set [28] relates to Mycobacterium tuberculosis. The data set is described as follows: Antimycobacterial activity against Mycobacterium tuberculosis H37Rv assessed as bacterial growth inhibition incubated for 7 days by microplate alamar blue assay. The class given is functional. Conditions: 168 h, time 7 day.
The test system of data set [29] is Mycobacterium tuberculosis. The data set is described as follows: Antimycobacterial activity against Mycobacterium tuberculosis Erdman assessed as bacterial growth inhibition incubated for 7 days by microplate alamar blue assay. The class given is functional. As to conditions: 168 h, time 7 day.
For data set [30], the system named is Mycobacterium avium. Briefly: Antimycobacterial activity against Mycobacterium avium assessed as bacterial growth inhibition incubated for 7 days by microplate alamar blue assay. The class given is functional. As to conditions: 168 h, time 7 day.
Data set [31] has as its system Mycobacterium tuberculosis. Briefly: In vivo antimycobacterial activity against Mycobacterium tuberculosis Erdman infected in Balb/c mouse assessed as reduction in log10 CFU in lungs at 15 mg/kg,po for 4 weeks […]. The class given is functional.
In data set [32] the test system is Mycobacterium tuberculosis. Briefly: Antitubercular activity against Mycobacterium tuberculosis CDC1551 assessed as bacterial growth inhibition for 6 days by spectroscopic analysis. The class given is functional, organism-based. As to conditions: CDC1551, 144 h.
In data set [33] the test system is Mycobacterium tuberculosis. Briefly: Antitubercular activity against Mycobacterium tuberculosis CDC1551 infected in mouse bone marrow derived macrophage assessed as bacterial growth inhibition for 2 days by spectroscopic analysis. Conditions: CDC1551, 48 h, time 2 day. The format is functional.
For data set [34], the system named is Mycobacterium tuberculosis. Briefly: Antitubercular activity against Mycobacterium tuberculosis H37Rv assessed as bacterial growth inhibition incubated for 7 days by Alamar blue based fluorescence assay. The format is functional. Conditions: 168 h, time 7 day.

pEC50: −log10 of the molar value. Converted amounts (≈) assume the structure as drawn.

The term MIC denotes the smallest concentration in the dilution series that meets the test's criterion for growth inhibition. Turning to `O=c1cc(-c2ccc(O)cc2)oc2ccc(O)c(CN3CCC3)c12`, in [1], the minimal inhibitory concentration (MIC) is 0.45 µg/mL (≈ 1.39 µM).
With `COc1ncnc(Cn2cnc3c(C(=O)NCCF)cccc32)c1C`, the minimum inhibitory concentration (MIC) in [2] was determined as 1.56 µM (≈ 0.536 µg/mL). The results for the Activity in data set [3] and in [4] were above 3 log10CFU and 1 log10CFU, respectively.
Broadly, the IC50 is the point on the concentration scale where inhibition reaches its midpoint. For `O=C(/C=C/c1cccs1)N1CCN(Cc2ccc3c(c2)OCO3)CC1`, the MIC in data set [5] came to 0.05 µg/mL (≈ 0.14 µM). Also, the IC50 in [6] was 0.1 µg/mL (≈ 0.281 µM). For the same molecule, in data set [7], the Activity was found to be 0.4 log10CFU.
Regarding `COc1nc2ccc(Br)cc2cc1[C@@H](c1ccccc1)[C@@](O)(CCN(C)C)c1cccc2ccccc12` [BEDAQUILINE], the MIC in [8] amounted to 0.03 µg/mL (≈ 0.054 µM); in [9], 0.01 µg/mL (≈ 0.018 µM).
For `CC(C)=CCC/C(C)=C/CNCCNC1C2CC3CC(C2)CC1C3` (stereo unspecified) [SQ109], the minimum inhibitory concentration (MIC) in data set [10] worked out at 0.7 µM (≈ 0.231 µg/mL). Also, the Activity in data set [11] stood at 99%. Moreover, in data set [12], the selectivity ratio came to 16.7.
In the case of `COC(=O)c1c(NC(=O)c2c(F)c(F)c(F)c(F)c2F)sc2c1CCCCC2`, in [13], the MIC was found to be 1 µM.
Take `Cc1ccccc1CN1CCC(O)(c2ccc(Cl)c(C(F)(F)F)c2)CC1`: the MIC in [14], in data set [15], in data set [16], in data set [17], in data set [18] and in [19] was 0.125 µg/mL (≈ 0.326 µM) throughout. For the same molecule, the MIC in [20], in data set [21], in [22] and in data set [23] was 0.125 µg/mL (≈ 0.326 µM) each time.
Usually MIC90 stands for an inhibitory concentration at the 90% level, which refers to growth in some studies and to a panel of isolates in others. For `Cc1c(OCC(F)(F)F)ccnc1CSc1nc2ccccc2[nH]1` [LANSOPRAZOLE SULFIDE], the MIC90 in data set [8] was 1.13 µM (≈ 0.399 µg/mL); in data set [24], 1.21 µM (≈ 0.428 µg/mL).
Take `Cc1cc2oc(=O)cc(-c3cccc(N)c3)c2c(C)c1-c1ccc(CN2CCOCC2)cc1`: the minimum inhibitory concentration (MIC) in data set [25] worked out at 0.24 µM (≈ 0.106 µg/mL); in data set [26], 0.4 µM (≈ 0.176 µg/mL); in data set [27], 0.83 µM (≈ 0.366 µg/mL).
`O=[N+]([O-])c1cc(C(F)(F)F)cc2c(=S)nc(N3CCC4(CC3)OCCO4)sc12`: the MIC in data set [28] is 0.02 µg/mL (≈ 0.0461 µM); in data set [29] it was 32 µg/mL (≈ 73.8 µM); in [30] it was below 0.05 µg/mL. Moreover, the Activity in data set [31] is 3.4 log10CFU.
Take `COC(=O)c1c(NC(=O)c2c(F)c(F)c(F)c(F)c2F)sc(C(N)=O)c1C`: the MIC in data set [13] came out at 0.5 µM.
For orientation: pEC50 means the EC50 on a negative log10 scale, so that one unit is a factor of ten. As for `O=C(NCCc1ccc(Cl)cc1)C1(c2cccs2)CCOCC1`, in data set [32], the negative logarithm of the EC50 (pEC50) was 5.19. In data set [33], the MIC99 stood at 19.3 µM (≈ 6.75 µg/mL).
`COc1ncccc1Nc1cc2nc3ccccc3n(-c3ccc(OC(F)(F)F)cc3)c-2c/c1=N\C1CCC(OC)CC1` (stereo unspecified): the minimum inhibitory concentration (MIC) in data set [34] came out at 0.016 µg/mL (≈ 0.0271 µM).
